These results are taken from patent publication US9862746B2, “Compositions and methods relating to hindering DOT1L recruitment by MLL-fusion proteins” (The Regents of the University of Michigan, priority 2013, dated 2018).

Where a SMILES comes first, the peptide text is derived from it.

Series [1] concerns the target T1, ENL (Homo sapiens, UniProt Q03111).
T1 construct: against AF9(497-568) and ENL (489-559) proteins running different tested concentrations over CM5 chip; MBP (pMSCG9-LIC vector); made in house; host or cells: Escherichia coli BL21 (DE3)
T1 sequence (Q03111 489-559): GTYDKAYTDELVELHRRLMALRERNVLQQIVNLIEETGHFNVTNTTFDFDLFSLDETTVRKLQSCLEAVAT
Put plainly: Solution competitive SPR assay of peptides, ENL-DOT1L interaction. The class given is binding. The protocol:
(§1) Solution competitive SPR based assay was performed to determine the IC50 values of DOT1L peptides. […] Response units (RU) were measured at 15 seconds in the dissociation phase and the specific binding was calculated by subtracting the control surface (Fcl) signal from the surfaces with immobilized Mocr-DOT1L. IC50 values were determined by non-linear least squares analysis using Graph Pad Prism 5.0 software.

For the next series, the target named is T2, GB1-AF9 (Homo sapiens, UniProt P42568).
T2 construct: the recombinant GB1-AF9 protein (residues 497-568); made in house; host or cells: Escherichia coli BL21 (DE3)
T2 sequence (P42568 497-568): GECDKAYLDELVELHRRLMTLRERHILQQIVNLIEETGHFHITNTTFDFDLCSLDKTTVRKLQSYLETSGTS
Put plainly: FP competitive binding, displacement of Flu-DOT1L from GB1-AF9. As to conditions: read-out: IC50, competition with DOT1L 10-mer fluorescein-labeled peptide for AF9. The protocol: AF4 (749-775) protein and several peptides (AF4 14 mer, un-labeled and biotin-labeled DOT1L 10 mer peptide) were tested for their ability to displace the Flu-DOT1L from GB1-AF9 protein. The dose-dependent binding experiments were carried out in 96-well plates with serial dilutions of tested protein or peptides, GB1-AF9 protein (500 nM) and Flu-DOT1L (10 nM) in the same assay buffer and final volume of 125 μL. The polarization values were measured after 3 h incubation. Negative controls containing GB1-AF9 protein and probe (equivalent to 0% inhibition), and positive controls containing only free Flu-DOT1L probe (equivalent to 100% inhibition), were included on each assay plate. IC50 values were determined by nonlinear regression fitting of the competition curves (GraphPad Prism 5.0).

Series [2] has as its target T3, AF9 (Homo sapiens, UniProt P42568).
T3 sequence (P42568 497-568): T2 sequence (P42568 497-568)
Put plainly: Solution competitive SPR assay of peptides, AF9-DOT1L interaction. The class given is binding. The arrangement: against AF9(497-568) and ENL (489-559) proteins running different tested concentrations over CM5 chip; GB1 (pGB1-LIC vector); made in house; host or cells: Escherichia coli BL21 (DE3). As to the method:
as §1
In general terms: In SPR one partner is held on a chip, and binding of the other changes the refractive index at the surface.

In series [3] the target is T4, AF9 (Homo sapiens, UniProt P42568).
T4 sequence (P42568 1-568): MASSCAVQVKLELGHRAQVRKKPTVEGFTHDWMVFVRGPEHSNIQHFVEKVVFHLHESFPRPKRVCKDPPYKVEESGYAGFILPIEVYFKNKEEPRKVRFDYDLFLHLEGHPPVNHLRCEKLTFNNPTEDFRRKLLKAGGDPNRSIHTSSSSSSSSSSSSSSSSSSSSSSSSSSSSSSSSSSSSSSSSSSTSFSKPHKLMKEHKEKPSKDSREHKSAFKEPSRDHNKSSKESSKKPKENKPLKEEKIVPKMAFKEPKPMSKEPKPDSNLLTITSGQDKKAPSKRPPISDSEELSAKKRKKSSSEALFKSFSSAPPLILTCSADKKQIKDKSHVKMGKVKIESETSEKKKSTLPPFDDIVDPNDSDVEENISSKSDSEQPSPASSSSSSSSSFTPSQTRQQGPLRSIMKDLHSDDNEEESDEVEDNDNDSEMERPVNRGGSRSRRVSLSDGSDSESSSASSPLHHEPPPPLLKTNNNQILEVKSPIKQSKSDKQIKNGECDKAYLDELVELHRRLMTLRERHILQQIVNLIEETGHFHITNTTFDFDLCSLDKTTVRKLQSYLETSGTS
Put plainly: Saturation Transfer Difference (STD) NMR. The class given is binding. As to the method: C) Globally fitted concentration series of 38 (100, 50, 25, 12.5 and 6.25 μM) binding to immobilized AF9 using OctetRed System (see Example 12).
To provide further validation of the hit selection in addition to the biochemical assays Saturation Transfer Difference (STD), NMR spectroscopy was used. NMR spectroscopy has been successfully utilized to detect and characterize the direct binding of small-molecule compounds to large biomolecules. This technique is also allowing characterization of the binding interactions and maps the ligand-protein contacts in the bound state, delineating which chemical moieties of the ligand molecule are key for molecular recognition by the protein (group epitope mapping, FIG. 20A). […] The direct binding of 38 was also confirmed with ThermoFluor biophysical binding assay. ThermoFluor exploits a well-known biophysical phenomenon where small changes in the intrinsic melting temperature of proteins in the presence of ligands are related to the equilibrium-binding constant. Compounds that interact with the native form of the protein will shift the equilibrium to the left, increasing the Tm, the temperature at which half the protein is unfolded. In the presence of compound 38, the Tm of MBP-AF9 protein increases in a dose-dependent manner, giving ΔTm of 1.2 degree in […] (FIG. 20B).

In series [4] the target is T1, ENL. The experiment in a line: SPR competitive binding assay of small molecules, ENL. The note with it: SPR competitive based assay; read-out: ENL IC50 ± SD. The text has this: (§2) To further validate the binding of the confirmed compounds and identify potential promiscuous inhibitors, several secondary assays have been developed to support hit confirmation and the hit-to-probe optimization process. In order to determine that the compounds bind effectively to the target and disrupt protein-protein interaction, a SPR competitive binding assay was used. This assay uses a platform that differs from the FP-based assay where DOT1L recombinant protein (residues […]) is immobilized on a CM5 chip, allowing for testing of the inhibitors for their ability to disrupt AF9-DOT1L protein-protein interactions.
This class of compounds was also tested for their binding against ENL protein, which is highly homologous with AF9.

Series [5] is described as follows: Microsomal stability in mouse liver microsome. The class given is in vitro ADME. As to conditions: with NADPH. As to the method: For optimization of this class of inhibitors besides testing their binding affinity, the physico-chemical properties and microsomal stability will be tested in order to obtain improvement at multiple levels, as necessary for fully optimized compounds. To obtain initial information about the stability of this chemical class of compounds, compounds 42 and 48 have been tested in microsomal stability using mouse liver microsome. […] If their structure is analyzed, the major difference between these two compounds is the R2 substituent, furan vs. thiophen.

For series [6], the target named is T3, AF9. The experiment in a line: SPR competitive binding assay of small molecules, AF9-DOT1L. Set-up: against AF9(497-568) and ENL (489-559) proteins running different tested concentrations over CM5 chip; GB1 (pGB1-LIC vector); made in house; host or cells: Escherichia coli BL21 (DE3). The note with it: SPR competitive based assay; read-out: AF9 IC50 ± SD.
From the text: Several secondary assays have already been developed to support hit confirmation and the hit-to-probe optimization process. The established and optimized SPR-based competitive assay utilizing DOT1L protein (826-1095) immobilized on the CM5 sensor chip was used as a secondary counter screen assay to validate binding of compounds to AF9. […] Both assays gave similar IC50 values.
as §2

Series [7] addresses T3, AF9. The experiment in a line: Optimized competitive FP binding assay (N-Flu-DOT1L / AF9). The arrangement: the recombinant GB1-AF9 protein (residues 497-568); made in house; host or cells: Escherichia coli BL21 (DE3).
In another series the target is T5, MBP-ENL (489-559) (Homo sapiens, UniProt Q03111).
T5 construct: MBP-ENL (489-559) was dialysed extensively; made in house; host or cells: Escherichia coli BL21 (DE3)
T5 sequence (Q03111 489-559): T1 sequence (Q03111 489-559)
Put plainly: Isothermal titration calorimetry with MBP-ENL. The class given is binding. The note with it: ITC, MBP-tagged ENL, 1:1 stoichiometry; read-out: KD to ENL protein. As to the method: Isothermal titration calorimetry—ITC was carried out using a Nano-ITC Micro Calorimeter (TA Instruments) at 20° C. MBP-ENL (489-559) was dialysed extensively against 50 mM Na2HPO4, (pH 7.5) and 100 mM NaCl, and 80 μM was used for titration studies of DOT1L 16-mer and 10-mer peptides, and 110 μM for DOT1L 7-mer titration. Tested peptides dissolved in the same buffer at 400 μM (DOT1L 16-mer and 10-mer) or 500 μM (DOT1L 7-mer) were tested by injecting 2 μl aliquots into the protein sample, at time intervals of […], to ensure that the titration peak returned to the baseline. The ITC data were analyzed by NanoAnalyze software package using a one site-binding model.
A general note: ITC needs no label: the signal is the heat of the interaction.

A further series concerns the target T6, DOT1L (826-1095) (Homo sapiens, UniProt Q8TEK3).
T6 construct: made in house; host or cells: Escherichia coli BL21 (DE3)
T6 sequence (Q8TEK3 826-1095): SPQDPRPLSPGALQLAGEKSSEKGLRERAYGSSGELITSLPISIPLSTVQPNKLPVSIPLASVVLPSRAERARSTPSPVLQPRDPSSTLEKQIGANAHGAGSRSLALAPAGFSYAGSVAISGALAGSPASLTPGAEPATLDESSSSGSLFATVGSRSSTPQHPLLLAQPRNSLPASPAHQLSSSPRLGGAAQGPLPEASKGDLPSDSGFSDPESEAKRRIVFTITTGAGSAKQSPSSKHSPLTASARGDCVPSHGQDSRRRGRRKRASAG
The experiment in a line: SPR binding of ENL fragments to immobilized Mocr-DOT1L (826-1095). As to the method: FIG. 7 pertains to analyzing the C-terminal domain in ENL protein and its binding to DOT1L. A. Alignment of ENL and AF9 C-terminal domain. The predicted α-helices are marked with Helix 1 and Helix 2 and conserved residues are presented in grey. […] The kon, koff and Kd were calculated by simultaneous non-linear regression using 1:1 binding model and BIAevaluation 3.1 software. The experimental data are shown in black while the global fit analyses are shown in grey.
Surface Plasmon Resonance (SPR) binding studies—All SPR based experiments were performed on a BIAcore 2000 (BIAcore, GE Healthcare) instrument. Different tested DOT1L recombinant proteins were immobilized on a CM5 sensor chip by standard EDC/NHS coupling chemistry followed by ethanolamine deactivation of the surfaces. For immobilization of full length Flag-DOT1L protein, anti-Flag antibody (Sigma, Anti-FLAG M2) was immobilized on CM5 chip by the same amine coupling chemistry. HEK293 whole cells lysate with overexpressed Flag-DOT1L at 2.4 μg/l total protein concentration was injected over the Flag antibody surface, followed by injecting of AF9 and ENL in different concentrations. […] Binding parameters, kon, koff and Kd were calculated by simultaneous non-linear regression using BIAEvaluation software.

For `CC[C@H](C)[C@H](NC(=O)[C@H](CCCCN)NC(=O)[C@@H](NC(=O)[C@H](CCSC)NC(=O)[C@H](CC(C)C)NC(C)=O)C(C)C)C(=O)N[C@H](C(=O)N[C@@H](CC(C)C)C(=O)N[C@@H](CC(=O)O)C(=O)N[C@@H](CC(C)C)C(=O)N[C@@H](CC(C)C)C(=O)N[C@@H](CO)C(=O)N[C@@H](CCCNC(=N)N)C(=O)N[C@H](C(=O)N1CCC[C@H]1C(N)=O)[C@@H](C)CC)[C@@H](C)O` [AF4 14 mer, reference compound] (Ac-LMVKITLDLLSRIP-NH2), the figures for the IC50 at ENL [1] (read-out: IC50 against ENL (block PPI DOT1L/ENL)), on GB1-AF9 and at AF9 [2] (read-out: IC50 against AF9 (block PPI DOT1L/AF9)) were 0.43 µM, 0.28 µM and 0.2 µM, respectively.
In the case of `COc1cccc(Nc2nc(N3CCOCC3)c3c(n2)N(C)NC3)c1` [Compound 36], at AF9 [3], the “STD effects (direct binding to AF9)” value is recorded as “strong STD effects”.
As to `CCCc1ccc(S(=O)(=O)N2c3ccccc3NC3=C(C(=O)CCC3)C2c2ccco2)cc1` (centres unmarked) [Compound 42], the IC50 is 58.1 ± 12 µM at ENL [4] and 47.1 ± 2.3 µM at AF9 [6]. Besides, the “half time in mouse liver microsome” value in [5] stood at 2 min.
Taken in the same sequence, the figures for `CCc1ccc(S(=O)(=O)N2c3ccccc3NC3=C(C(=O)CCC3)C2c2cccs2)cc1` (centres unmarked) [Compound 48] were 19.7 ± 4 µM, 24.8 ± 1.3 µM and greater than 60 min.
For orientation: Ki means a dissociation constant, usually derived from enzyme kinetics or from competition with a known ligand. Regarding `CC[C@H](C)[C@H](NC(=O)[C@@H]1CCCN1C(=O)[C@H](CC(C)C)NC(C)=O)C(=O)N[C@@H](CO)C(=O)N[C@@H](C)C(=O)N1CCC[C@H]1C(=O)N[C@@H](CC(C)C)C(=O)N[C@@H](CO)C(=O)N[C@H](C(=O)N[C@H](C(N)=O)C(C)C)[C@@H](C)O` [Compound I869A] (Ac-LPISAPLSTV-NH2), the IC50 on ENL [1] (CM5 chip with immobilized DOT1L protein, read-out: IC50 ± SD ENL) was greater than 200 µM; at AF9 [2] (CM5 chip with immobilized DOT1L protein, read-out: IC50 ± SD AF9), greater than 200 µM. At AF9 [7], the inhibitory constant (Ki) is greater than 100 µM.
As a reminder, the Kd is the concentration at which binding is half-saturated. Turning to `CC[C@H](C)[C@H](NC(=O)[C@@H]1CCCN1C(=O)[C@H](CC(C)C)NC(C)=O)C(=O)N[C@@H](CO)C(=O)N[C@H](C(=O)N1CCC[C@H]1C(=O)N[C@@H](CC(C)C)C(N)=O)[C@@H](C)CC` [DOT1L 7 mer, Ac-LPISIPL-NH2] (Ac-LPISIPL-NH2), the Kd at MBP-ENL (489-559) came out at 3.4 µM.
Turning to “ENL H1: recombinant fragment of ENL protein corresponding to predicted helix 1 (GTYDKAYTDELVELHRRLMALRERNVLQQIVNLIEETGHFNVTNTTFDFDLFSLDE)”, in the series with DOT1L (826-1095), the Kd turned out to be 2.8 µM.
On the same count and under the same terms, the figure for “ENL H2: recombinant fragment of ENL protein corresponding to predicted helix 2 (EETGHFNVTNTTFDFDLFSLDETTVRKLQSCLEAVAT)” is 14.6 µM.
Regarding “recombinant AF4 protein: AF4 recombinant protein (749-775 residues) (LSPLRDTPPPQSLMVKITLDLLSRIPQ)”, in the series with GB1-AF9, the IC50 was 0.56 µM.
